Data as given in patent publication US20210277015A1, “OGA INHIBITOR COMPOUNDS” (Janssen Pharmaceutica NV, priority 2018, published 2021).

Assays:
[1] = molecular target: T1, recombinant human Meningioma Expressed Antigen 5 (MGEA5), also referred to as O-GlcNAcase (OGA) (Homo sapiens, UniProt O60502); test: OGA biochemical assay (inhibition of FM-GlcNAc hydrolysis, fluorescence); conditions: FM-GlcNAc substrate; for IC50: 6 h at room temperature, read-out: Enzymatic hOGA, pIC50 (converted); for Enzymatic Emax (%) / Emax: maximal effect; for Emax: read-out: Enzymatic Emax (%)
T1 construct: Full length OGA enzyme was purchased at OriGene (cat #TP322411); purchased OriGene TP322411
T1 sequence (O60502 1-916): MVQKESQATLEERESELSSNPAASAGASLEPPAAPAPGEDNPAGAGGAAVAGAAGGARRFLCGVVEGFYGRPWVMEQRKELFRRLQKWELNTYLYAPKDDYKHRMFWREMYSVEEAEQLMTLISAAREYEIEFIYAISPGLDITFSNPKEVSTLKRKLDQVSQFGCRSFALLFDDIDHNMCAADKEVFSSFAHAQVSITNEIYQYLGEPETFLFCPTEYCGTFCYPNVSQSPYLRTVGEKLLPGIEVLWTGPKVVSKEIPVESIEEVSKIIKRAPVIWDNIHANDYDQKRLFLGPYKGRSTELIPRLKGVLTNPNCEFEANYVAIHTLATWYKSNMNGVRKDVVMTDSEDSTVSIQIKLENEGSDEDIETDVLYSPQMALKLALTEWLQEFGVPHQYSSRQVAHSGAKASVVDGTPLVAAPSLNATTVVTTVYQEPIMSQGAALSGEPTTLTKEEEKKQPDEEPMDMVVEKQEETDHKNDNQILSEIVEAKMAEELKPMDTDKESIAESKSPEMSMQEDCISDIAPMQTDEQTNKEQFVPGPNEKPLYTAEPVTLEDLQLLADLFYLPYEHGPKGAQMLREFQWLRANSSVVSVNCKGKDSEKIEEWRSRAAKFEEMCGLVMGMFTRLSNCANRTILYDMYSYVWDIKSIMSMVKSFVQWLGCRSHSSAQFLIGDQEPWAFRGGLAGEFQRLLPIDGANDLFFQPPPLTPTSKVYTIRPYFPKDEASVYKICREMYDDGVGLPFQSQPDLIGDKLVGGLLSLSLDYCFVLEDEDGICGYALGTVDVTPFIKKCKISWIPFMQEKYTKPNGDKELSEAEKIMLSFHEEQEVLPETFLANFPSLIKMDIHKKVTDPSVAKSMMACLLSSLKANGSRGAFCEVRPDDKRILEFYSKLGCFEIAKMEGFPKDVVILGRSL
Description: The assay is based on the inhibition of the hydrolysis of fluorescein mono-β-D-N-Acetyl-Glucosamine (FM-GlcNAc) (Mariappa et al. 2015, Biochem J 470:255) by the recombinant human Meningioma Expressed Antigen 5 (MGEA5), also referred to as O-GlcNAcase (OGA). The hydrolysis FM-GlcNAc (Marker Gene technologies, cat #M1485) results in the formation of β-D-N-glucosamineacetate and fluorescein. The fluorescence of the latter can be measured at excitation wavelength 485 nm and emission wavelength 538 nm. An increase in enzyme activity results in an increase in fluorescence signal. Full length OGA enzyme was purchased at OriGene (cat #TP322411). The enzyme was stored in 25 mM Tris.HCl, pH 7.3, 100 mM glycine, 10% glycerol at −20° C. Thiamet G and GlcNAcStatin were tested as reference compounds (Yuzwa et al. 2008 Nature Chemical Biology 4:483; Yuzwa et al. 2012 Nature Chemical Biology 8:393). The assay was performed in 200 mM Citrate/phosphate buffer supplemented with 0.005% Tween-20. 35.6 g Na2HPO4 2 H2O (Sigma, #C0759) were dissolved in 1 L water to obtain a 200 mM solution. 19.2 g citric acid (Merck, #1.06580) was dissolved in 1 L water to obtain a 100 mM solution. pH of the sodium phosphate solution was adjusted with the citric acid solution to 7.2. The buffer to stop the reaction consists of a 500 mM Carbonate buffer, pH 11.0. 734 mg FM-GlcNAc were dissolved in 5.48 mL DMSO to obtain a 250 mM solution and was stored at −20° C. OGA was used at a 2 nM concentration and FM-GlcNAc at a 100 uM final concentration. Dilutions were prepared in assay buffer.
50 nl of a compound dissolved in DMSO was dispensed on Black Proxiplate™ 384 Plus Assay plates (Perkin Elmer, #6008269) and 3 μl fl-OGA enzyme mix added subsequently. Plates were pre-incubated for 60 min at room temperature and then 2 μl FM-GlcNAc substrate mix added. […] Plates were briefly centrifuged for 1 min at 1000 rpm and incubate at room temperature for 6 h. To stop the reaction 5 μl STOP buffer were added and plates centrifuge again 1 min at 1000 rpm. Fluorescence was quantified in the Thermo Scientific Fluoroskan Ascent or the PerkinElmer EnVision with excitation wavelength 485 nm and emission wavelength 538 nm.
For analysis a best-fit curve is fitted by a minimum sum of squares method. From this an IC50 value and Hill coefficient was obtained. High control (no inhibitor) and low control (saturating concentrations of standard inhibitor) were used to define the minimum and maximum values.

OGA = molecular target: T2, OGA (Homo sapiens, UniProt O60502); test: OGA cellular assay (ICC detection of O-GlcNAcylated proteins in HEK293 cells inducible for P301L mutant human Tau); format: cell-based; conditions: for Emax: HEK293, HEK293 cells inducible for P301L mutant human Tau; for Emax / Cellular Emax (%): maximum defined by Thiamet G at 200 uM; for EC50 / Cellular Emax (%) / Cellular hOGA; pEC50: HEK293 cells inducible for P301L mutant human Tau; for EC50 / Cellular hOGA; pEC50: 6 hours incubation, ICC O-GlcNAcylation; for EC50: read-out: Cellular hOGA, pEC50 (converted)
T2 construct: endogenous in cells; host or cells: HEK293 cells inducible for P301L mutant human Tau (isoform 2N4R)
T2 sequence (O60502 1-916): T1 sequence (O60502 1-916)
Experimental: HEK293 cells inducible for P301L mutant human Tau (isoform 2N4R) were established at Janssen. Thiamet-G was used for both plate validation (high control) and as reference compound (reference EC50 assay validation). OGA inhibition is evaluated through the immunocytochemical (ICC) detection of O-GlcNAcylated proteins by the use of a monoclonal antibody (CTD110.6; Cell Signaling, #9875) detecting O-GlcNAcylated residues as previously described (Dorfmueller et al. 2010 Chemistry & biology, 17:1250). Inhibition of OGA will result in an increase of O-GlcNAcylated protein levels resulting in an increased signal in the experiment. Cell nuclei are stained with Hoechst to give a cell culture quality control and a rough estimate of immediate compounds toxicity, if any. ICC pictures are imaged with a Perkin Elmer Opera Phenix plate microscope and quantified with the provided software Perkin Elmer Harmony 4.1.
Cells were propagated in DMEM high Glucose (Sigma, #D5796) following standard procedures. 2 days before the cell assay cells are split, counted and seeded in Poly-D-Lysine (PDL) coated 96-wells (Greiner, #655946) plate at a cell density of 12,000 cells per cm^2 (4,000 cells per well) in 100 μl of Assay Medium (Low Glucose medium is used to reduce basal levels of GlcNAcylation) (Park et al. 2014 The Journal of biological chemistry 289:13519). At the day of compound test medium from assay plates was removed and replenished with 90 μl of fresh Assay Medium. 10 μl of compounds at a 10 fold final concentration were added to the wells. Plates were centrifuged shortly before incubation in the cell incubator for 6 hours. DMSO concentration was set to 0.2%. Medium is discarded by applying vacuum. For staining of cells medium was removed and cells washed once with 100 μl D-PBS (Sigma, #D8537). From next step onwards unless other stated assay volume was always 50 μl and incubation was performed without agitation and at room temperature. Cells were fixed in 50 μl of a 4% paraformaldehyde (PFA, Alpha aesar, #043368) PBS solution for 15 minutes at room temperature. […] Before analysis samples were washed 2 times manually for 5 minutes in ICC base buffer.
Imaging is performed using Perkin Elmer Phenix Opera using a water 20× objective and recording 9 fields per well. Intensity readout at 488 nm is used as a measure of O-GlcNAcylation level of total proteins in wells. To assess potential toxicity of compounds nuclei were counted using the Hoechst staining. IC50-values are calculated using parametric non-linear regression model fitting. As a maximum inhibition Thiamet G at a 200 uM concentration is present on each plate. In addition, a concentration response of Thiamet G is calculated on each plate.

With `CC(c1cc2c(cc1F)OCCO2)N1CC[C@H](Cc2ncc(F)cc2F)C1` (single isomer, unassigned) [Product 29] the IC50 [1] was 50.1 nM, the “Enzymatic Emax (%)” value [1] was 102% and the Emax (OGA) was 35%. The EC50 (OGA) was > 1000 nM.
In the case of `Cc1cc(C[C@@H]2CCN(C(C)c3cnc4c(c3)OCCO4)C2)cc(C)n1` (single isomer, unassigned) [Product 35], the IC50 [1] is reported as 7940 nM, the “Enzymatic Emax (%)” value [1] is reported as 54% and the EC50 (OGA) is reported as > 1000 nM. For the same compound, the “Cellular Emax (%)” value (OGA) was −6%.
For `Cc1cc(C[C@@H]2CCN(C(C)c3cnc4c(c3)OCCO4)C2)cc(C)n1` (single isomer, unassigned) [Product 36], the IC50 [1] was 200 nM, the “Enzymatic Emax (%)” value [1] was 99% and the “Cellular hOGA; pEC50” value (OGA) was <6. The “Cellular Emax (%)” value (OGA) was 15%.
An IC50 [1] of 7.94 nM, an Emax [1] of 100% and an EC50 (OGA) of 158 nM were found for `Cc1cc(O[C@@H]2CCN(C(C)c3nc4c(cc3F)OCCO4)C2)cc(C)n1` (single isomer, unassigned) [Product 40] in this work. The “Cellular Emax (%)” value (OGA) was 84%.
With `Cc1cc(O[C@@H]2CCN(C(C)c3nc4c(cc3F)OCCO4)C2)cc(C)n1` (single isomer, unassigned) [Product 41] the IC50 [1] was 1580 nM, the “Enzymatic Emax (%)” value [1] was 87% and the EC50 (OGA) was > 1000 nM. The “Cellular Emax (%)” value (OGA) was −13%.
In the case of `Cc1cc(C[C@@H]2CCN(C(C)c3nc4c(cc3F)OCCO4)C2)cc(C)n1` (single isomer, unassigned) [Product 51], the IC50 [1] is reported as 398 nM, the Emax [1] is reported as 96% and the EC50 (OGA) is reported as > 1000 nM. The “Cellular Emax (%)” value (OGA) was 8%.
In the case of `Cc1cc(C[C@@H]2CCN(C(C)c3nc4c(cc3F)OCCO4)C2)cc(C)n1` (single isomer, unassigned) [Product 52], the IC50 [1] is reported as 6.31 nM, the “Enzymatic Emax (%)” value [1] is reported as 101% and the EC50 (OGA) is reported as 63.1 nM. For the same compound, the “Cellular Emax (%)” value (OGA) was 80%.
For `CC(c1ccc2c(n1)OCCO2)N1CC[C@@H](Oc2ccc(C#N)nn2)C1` (single isomer, unassigned) [Product 54], the IC50 [1] was > 10000 nM, the “Enzymatic Emax (%)” value [1] was 19% and the EC50 (OGA) was > 1000 nM. The “Cellular Emax (%)” value (OGA) was 2%.
In the case of `CC(c1ccc2c(n1)OCCO2)N1CC[C@@H](Oc2ccc(C#N)nn2)C1` (single isomer, unassigned) [Product 55], the IC50 [1] is reported as 200 nM, the “Enzymatic Emax (%)” value [1] is reported as 94% and the “Cellular hOGA; pEC50” value (OGA) is reported as <6. The “Cellular Emax (%)” value (OGA) was 24%.
With `Cc1cc(O[C@H]2CCN(C(C)c3ccc4c(n3)OCCO4)C2)cc(C)n1` (single isomer, unassigned) [Product 71] the IC50 [1] was 794 nM, the “Enzymatic Emax (%)” value [1] was 99% and the EC50 (OGA) was > 1000 nM. For the same compound, the “Cellular Emax (%)” value (OGA) was 9%.
`Cc1cc(O[C@H]2CCN(C(C)c3ccc4c(n3)OCCO4)C2)cc(C)n1` (single isomer, unassigned) [Product 72] was tested, and the IC50 [1] was > 10000 nM, the “Enzymatic Emax (%)” value [1] was 21% and the “Cellular hOGA; pEC50” value (OGA) was <6. The “Cellular Emax (%)” value (OGA) was −8%.
`Cc1cc(O[C@@H]2CCN(C(C)c3ccc4c(n3)OCCO4)C2)cc(C)n1` (single isomer, unassigned) [Product 74] was tested, and the IC50 [1] was 7940 nM, the “Enzymatic Emax (%)” value [1] was 50% and the EC50 (OGA) was > 1000 nM. The “Cellular Emax (%)” value (OGA) was −9%.
For `Cc1cc(O[C@@H]2CCN(C(C)c3ccc4c(n3)OCCO4)C2)cc(C)n1` (single isomer, unassigned) [Product 75], the IC50 [1] was 39.8 nM, the “Enzymatic Emax (%)” value [1] was 99% and the “Cellular hOGA; pEC50” value (OGA) was <6. The “Cellular Emax (%)” value (OGA) was 34%.
An IC50 [1] of 3.16 nM, an Emax [1] of 102% and an Emax (OGA) of 100% were found for `COc1cc(C[C@H]2CCN(C(C)c3nc4c(cc3F)CCO4)C2)cc(C)n1` (single isomer, unassigned) [Product 84] in this work. For the same compound, the EC50 (OGA) was 15.8 nM.
An IC50 [1] of 79.4 nM, an Emax [1] of 100% and an Emax (OGA) of 39% were found for `COc1cc(CC2(C)CCN(C(C)c3ccc4c(n3)OCCO4)C2)cc(C)n1` (single isomer, unassigned) [Product 95] in this work. The EC50 (OGA) was > 1000 nM.
With `Cc1cc(OC[C@]2(C)CCN([C@H](C)c3ccc4c(n3)OCCO4)C2)cc(C)n1` (single isomer, unassigned) [Product 100] the IC50 [1] was 2000 nM, the “Enzymatic Emax (%)” value [1] was 87% and the EC50 (OGA) was > 1000 nM. The “Cellular Emax (%)” value (OGA) was −5%.
In the case of `Cc1cc(OC[C@]2(C)CCN([C@H](C)c3ccc4c(n3)OCCO4)C2)cc(C)n1` (single isomer, unassigned) [Product 101], the IC50 [1] is reported as > 10000 nM, the “Enzymatic Emax (%)” value [1] is reported as 13% and the “Cellular hOGA; pEC50” value (OGA) is reported as <6. For the same compound, the “Cellular Emax (%)” value (OGA) was −4%.
In the case of `Cc1cc(OC[C@]2(C)CCN([C@H](C)c3ccc4c(n3)OCCO4)C2)cc(C)n1` (single isomer, unassigned) [Product 102], the IC50 [1] is reported as 398 nM, the “Enzymatic Emax (%)” value [1] is reported as 93% and the “Cellular hOGA; pEC50” value (OGA) is reported as <6. The “Cellular Emax (%)” value (OGA) was 7%.
